The text below walks through data of the RepoRT retention time repository (doi:10.1021/acs.analchem.2c02893).

This data set is described as follows: RP, Thermo Scientific Acclaim RSLC 120 C18, 100 × 2.1 mm, 2.2 µm, 30 °C, 0.2 mL/min, estimated dead time 1.1 min; A: 90% water + 10% methanol + 0.01% formic acid + 5 mM ammonium formate, pH 3.61; B: methanol + 0.01% formic acid + 5 mM ammonium formate, pH 3.61; gradient (min/%B) 0/1 1/1 2/39 13/99.9 15/99.9 15.1/1 20.1/1. The conditions noted are these: stereoisomer not certain.
Take `CN1C2CCC1CC(OC(=O)C(O)c1ccccc1)C2` (stereo unspecified) [Homatropine]: the LC retention time was 3.73 min.
In the case of `Cc1nn(C)c(Oc2ccccc2)c1C=NOCc1ccc(C(=O)OC(C)(C)C)cc1` [Fenpyroximate], the LC retention time was 13.2 min.
Turning to `C=CCN(CC=C)C(=O)C(Cl)Cl` [Dichlormid], the LC retention time is 7.18 min.
As for `Nc1ccc(Cl)cc1C(=O)c1ccccc1` [Benzophenone- 2-Amino-5-chloro], the figure is 10.5 min.
Consider `Clc1ccc(CSC(Cn2cncn2)=Nc2ccc(Cl)cc2Cl)cc1` [Imibenconazole], for which the LC retention time was 12.4 min.
As for `N[C@@H](Cc1cc(I)c(Oc2cc(I)c(O)c(I)c2)c(I)c1)C(=O)O` [L-Thyroxine], the figure is 9.39 min; as for `Clc1ccc2c(c1)C(N1CCNCC1)=Nc1ccccc1O2` [Amoxapine], 7.64 min.
On to `COC=C(C(=O)OC)c1ccccc1COc1cc(C(F)(F)F)nc(OC(C)C)n1` [Fluacrypyrim], for which the LC retention time was 11.5 min.
Next, `N=C1NC(=O)C(c2ccccc2)O1` (stereo unspecified) [Pemoline]: 4.34 min; `CCCCCCCCCCCC(CC1OC(=O)C1CCCCCC)OC(=O)C(CC(C)C)NC=O` (stereo unspecified) [Orlistat (Na)]: 14.6 min.
As for `O=C(O)c1ccccc1C(=O)Nc1ccc(S(=O)(=O)Nc2nccs2)cc1` [Sulfathiazole-Phthalyl], the figure is 4.66 min; as for `CSC(=O)c1cccc2nnsc12` [Acibenzolar-S-Methyl], 9.65 min; as for `CCCCCn1nc(C(=O)NC(C)(C)c2ccccc2)c2ccccc21` [Cumyl-PINACA], 12.5 min.
As for `CCCCCn1cc(C(=O)C23CC4CC(CC(C4)C2)C3)c2ccccc21` [JWH-018-Adamantoyl. AB-001], the figure is 13.7 min.
Consider `CS(=O)(=O)c1ccc(C(O)C(CF)NC(=O)C(Cl)Cl)cc1` (stereo unspecified) [Florfenicol], for which the LC retention time was 4.73 min.
Next, `Cc1nn(C)c(OCC(=O)c2ccccc2)c1C(=O)c1ccc(Cl)cc1Cl` [Pyrazoxyfen]: 10.9 min; `Oc1ccc2ccccc2c1N=Nc1ccccc1` [Sudan I]: 13.6 min; `CC(Cc1ccccc1)NCCCCl` (stereo unspecified) [Mefenorex]: 5.31 min.
Next, `CCSC(=O)N1CCCCCC1` [Molinate]: 9.89 min; `COCC(C)N(C(=O)C(=O)O)c1c(C)csc1C` (stereo unspecified) [Dimethenamide-OXA]: 6.36 min; `CS(=O)(=O)NC(=O)c1cc(Oc2ccc(C(F)(F)F)cc2Cl)ccc1[N+](=O)[O-]` [Fomesafen]: 9.01 min.
In the case of `COc1ccc(C(O)(c2cncnc2)C2CC2)cc1` (stereo unspecified) [Ancymidol], the LC retention time was 7.15 min.
Next, `CN(C)C(=O)Oc1cc(OC(=O)N(C)C)cc(C(O)CNC(C)(C)C)c1` (stereo unspecified) [Bambuterol]: 5.16 min; `CC(C)OC(=O)Nc1cccc(Cl)c1` [Chlorpropham]: 9.78 min.
As for `O=c1[nH]sc2ccccc12` [1,2-Benzisothiazolinone], the figure is 5.14 min.
As for `CN1C(=O)CN=C(c2ccccc2Cl)c2cc(Cl)ccc21` [Diclazepam], the figure is 9.19 min; as for `CCCCCn1cc(C(=O)N2CCN(C)CC2)c2ccccc21` [MEPIRAPIM], 7.75 min; as for `COc1cc(CCNCc2ccccc2OC)c(OC)cc1Cl` [2-C-C-NBoMe], 7.34 min.
As to `CCN(C(=O)SCc1ccccc1)C(C)C(C)C` (stereo unspecified) [Esprocarb], the LC retention time was 12.2 min.
Next, `CCNc1nc(NC(C)C)nc(OC)n1` [Atraton]: 7.81 min.
As for `CC(C)(c1ccc(OCC(O)CCl)cc1)c1ccc(OCC(O)CCl)cc1` (stereo unspecified) [Bisphenol<U+00A0>A bis(3-chloro-2-hydroxypropyl) ether], the figure is 11.4 min.
